Test results published in article PMC11642016 (International Journal of Molecular Sciences, 2024).

Columns and labels:
[1] = test system: Fadu cells; assay: CellTiter-Glo luminescent cell viability assay, Fadu; details: Homo sapiens, FaDu, 72 h, 72 h, first-set screening, mean ± SD, n = 2; for viability at 2.8 µM: read-out: Cell Viability (% of Control) 2.8 µM, Fadu; for viability at 8.3 µM: read-out: Cell Viability (% of Control) 8.3 µM, Fadu; for viability at 25 µM: read-out: Cell Viability (% of Control) 25 µM, Fadu
[2] = test system: PANC-1 cells; assay: CellTiter-Glo luminescent cell viability assay, PANC-1; details: Homo sapiens, PANC-1, 72 h, 72 h, first-set screening, mean ± SD, n = 2; for viability at 2.8 µM: read-out: Cell Viability (% of Control) 2.8 µM, PANC-1; for viability at 8.3 µM: read-out: Cell Viability (% of Control) 8.3 µM, PANC-1; for viability at 25 µM: read-out: Cell Viability (% of Control) 25 µM, PANC-1
Method: Primary fibroblast cultures were prepared from human skin biopsies and maintained in DMEM supplemented with 10% FBS, 1% penicillin-streptomycin, and 1% MEM Non-Essential Amino Acids Solution (Thermo Fisher Scientific). […] All cell lines were cultured in a humidified atmosphere at 37 °C and 5% CO2, passaged twice a week, and the experiments were performed on cells between passage 5 and 15. The cell lines were routinely screened for the absence of mycoplasma infection (DAPI staining).
The effects of the synthesized compounds on cell viability were measured using the CellTiter-Glo® luminescent cell viability assay (Promega, Madison, WI, USA), according to the manufacturer’s instructions. Briefly, cells were seeded onto a flat-bottomed, white 96-well plate (BRANDplates, cat. no.: 781965)), with the following densities: PANC-1: 750 cells/well, Fadu: 2000 cells/well, primary fibroblasts: 2000 cells/well, HEK293T WT: 1000 cells/well, HEK293T CLPP^−/−: 2500 cells/well. After seeding, cells were incubated for a further 48 h before treatment. Cells were treated with the compounds for 72 h. Three concentrations (25.0 µM; 8.3 µM; 2.8 µM) were applied during the initial cell viability screening, while for the determination of dose–response curves, 1.5-fold serially diluted compound concentrations were applied (range: 26 µM–0.7 µM). After treatment, the luminescence signal was recorded using a microplate reader (BioTek Synergy 2 Multi-Mode Reader, BioTek, Winooski, VT, USA).
Data analysis was performed using GraphPad Prism 9.5.0 software (GraphPad Software, San Diego, CA, USA). […] The dose–response curves were generated by four-parameter nonlinear regression, and the IC50 values were determined as the means ± SEM of the best-fit values of 3 independent measurements. The R^2 values were consistently above 0.93, indicating a strong fit of the model to the experimental data (Supplementary S.89). […] Dunnett’s post hoc test was applied to adjust for multiple comparisons, minimizing the likelihood of false positive results. Assumptions for ANOVA, including normality (assessed via QQ plots) and homogeneity of variance (tested using the Brown–Forsythe test), were verified. The following significance levels were applied: * p < 0.05, ** p < 0.01, *** p < 0.001, **** p < 0.0001. […] The tumor selectivity of the compounds was quantitatively characterized by the selectivity index (SI). This parameter was calculated as the ratio of the average best-fit IC50 value for primary fibroblasts and the best-fit IC50 value for the corresponding tumor cells (PANC-1 or Fadu).

[3] = test system: PANC-1 and Fadu cells; assay: CellTiter-Glo viability, statements covering both cancer cell lines; format: cell-based, human; details: Homo sapiens; 25 µM; in either of the cancer cell lines; read-out: drop in viability at 25 µM
Method: The effects of the synthesized compounds on cell viability were measured using the CellTiter-Glo® luminescent cell viability assay (Promega, Madison, WI, USA), according to the manufacturer’s instructions. […] After seeding, cells were incubated for a further 48 h before treatment. Cells were treated with the compounds for 72 h. […] After treatment, the luminescence signal was recorded using a microplate reader (BioTek Synergy 2 Multi-Mode Reader, BioTek, Winooski, VT, USA).

Compound	viability at 2.8 µM [1] [%]	viability at 8.3 µM [1] [%]	viability at 25 µM [1] [%]	viability at 2.8 µM [2] [%]	viability at 8.3 µM [2] [%]	viability at 25 µM [2] [%]	viability at 25 µM [3] [%]
NCC#Cc1ccc(CN2C(=O)C3=C(CCN(Cc4cccc(-n5cc(-c6ccccc6)nn5)c4)C3)N3CCN=C23)cc1 [3b]	103 ± 2	95 ± 3	22 ± 4	103 ± 8	84 ± 2	0	0 to 1
NCC#Cc1cccc(CN2C(=O)C3=C(CCN(Cc4cccc(-n5cc(-c6ccccc6)nn5)c4)C3)N3CCN=C23)c1 [4b]	76 ± 1	34 ± 3	0	87 ± 5	70	0	0 to 1
